In patent US11446276B2, “Extreme low dose THC as a therapeutic and prophylactic agent for Alzheimer's disease” (University of South Florida, priority 2015, dated 2022) one finds Aβ levels data, which are given here for 1 compound.

In the test the test system is Aβ in N2a/AβPPswe cells. Briefly: Sandwich ELISA of Aβ in N2a/AβPPswe cells treated with THC and CB1 inhibitor rimonabant. As to conditions: 25 nM THC with no rimonabant; 36 hour and later time points; FIG. 2. It counts as cell-based, human. The method, then: The mechanism of action was elucidated for THC's effect on Aβ levels using a sandwich ELISA assay. N2a/AβPPswe cells, as discussed in Example 1, were suspended to 2×10^5/mL, 3 mL plated into each well, and grown in DMEM with 10% fetal bovine serum, 100 U/mL penicillin, 100 μg/mL streptomycin, and 400 μg/mL G418 (Invitrogen), at 37° C. in the presence of 5% CO2. N2a/AβPPswe cells were subcultured using trypsin, and pipetted numerous times to ensure cells were separated into individual cells. Cells were counted, as provided in Example 1, and proper amount of cell medium and fresh medium was added into new flasks according to the ratio of dilution. Pipetting was performed 10 times to homogenize cells, and 3 mL of cells were seeded into medium into each 6 well plate. When one pipette was used up, the cells were mixed in the flask before using them for the next pipette. Compounds were suspended in DMSO.
12 hours after cells were plated, cells were treated with 25 nM of Δ9-THC (T4764-1ML Sigma Aldrich, Merck KGaA; Darmstadt, Germany), with the known inhibitor of the CB1 receptor, rimonabant, at 0 μM, 100 μM, 10 μM, 1 μM, or 0.1 μM rimonabant. Untreated N2a/AβPPswe cells were used as a control. Treatment was then washed out, i.e. the medium was then removed from the cultures and 3 mL of media containing the treatment compounds were added. Cells were collected at 12 hours afterwards, 48 hours afterwards, 60 hours afterwards, and 72 hours afterwards, and ELISA was conducted on the cells.
ELISA assay was performed on the cells using 50 μL of goat anti-PWT1-42 antibody solution, which was incubated overnight, followed by a 1-hour incubation with 0.1% I-block buffer. The tissue culture supernatant was diluted 1:10 with diluent buffer containing a protease inhibitor. Standards were prepared by serial dilution, as provided in Example 1. The plate was washed and 50 μL of sample or standard was added with triplication. 50 μL of both Biosource 40/42 (HS) (primary antibody) Aβ and a standard solution was added to each well and incubated for 3 hours followed by 5× wash with PBST. […]
A general note: In an ELISA, binding on a coated surface is turned into a signal by an enzyme label.

Entries after “also recorded” stand apart in the source; their conditions may differ.

As for `CCCCCc1cc(O)c2c(c1)OC(C)(C)[C@@H]1CCC(C)=C[C@@H]21` [THC, Δ9-tetrahydrocannabinol], the Aβ levels result is “significantly lower Aβ; also recorded: marked decreases”.
